In patent US10913983B2, “Sensitivity markers and uses for CDK7 inhibitors in breast cancers” (UNIVERSITY OF SOUTH CAROLINA, priority 2017, dated 2021):

Key:
[1] = tested on: breast cancer cell lines (TNBC, ER+HER2−, ER+HER2+ and ER−/HER2+); assay: Cell proliferation, 12-well plates, bright-field imaging; format: cell-based; settings: 100 nM, seven days of treatment
Experimental: Cells were seeded in 12-well plates at densities ranging from 10000-30000 cells/well and after 24 hours cells were treated with 10, 40 and 100 nM THZ1 in triplicate. After 7 days the cells were imaged using Zeiss Axiovert 200 microscope using a 20× objective lens. Additionally, cells were plated in 96-well plates at a density of 2000 cells/well and after 24 hours treated with 0-10 μM THZ1. After 2 and 7 days the growth of the cells was measured by MTT assay.
The effects of different concentrations of THZ1 on breast cancer cell lines was examined. Cell lines included TNBC, ER+HER2−, ER+HER2+ and ER−/HER2+ and effects were studied over seven days of treatment.

[2] = tested on: phosphorylation of RNA Pol II at S2, S5 and S7; assay: Immunoblotting of RNA Pol II phosphorylation; format: cell-based; settings: increasing concentrations (10-6250 nM), 4 hours, multiple breast cancer cell lines
Experimental: (§1) Cells were plated in 100 mm^2 petri dishes at a density of 1×10^6 cells/plate and allowed to grow for 3-4 days until the cells reached 80% confluency. Cells were treated with THZ1 or with vehicle control (DMSO) prior to lysing cells in RIPA buffer containing protease inhibitor cocktail and PMSF. Protein concentration was determined using BCA assay (Pierce). All lysates were prepared in biological duplicates. Protein (50 μg) was resolved on 4-20% Express-Plus PAGE gels in Tris-MOPS (SDS) running buffer (GenScript), transferred to PVDF membranes and incubated at 4° C. overnight with primary antibodies: CDK7 (sc-529, SantaCruz), ER (sc-543, SantaCruz), HER2 (#4290, Cell Signaling Technology), RNA-Pol II-S2P (C152000005, Diagenode), RNA-Pol II-S5P C152000007, RNA-Pol II-S7P (04-1570, Millipore) and RNA-Pol II (sc-900X, SantaCruz), CITED2 (MAB5005, R+D Systems), Tubulin (T-9026, Sigma), followed by anti-rabbit (#31460, ThermoFisher Scientific), anti-mouse (31430, ThermoFisher Scientific) or anti-rat (AP136P, Millipore) secondary antibodies. Bands were visualized with Western Lighting Plus ECL detection reagent (Perkin Elmer) using ChemiDoc Touch™ (BioRad). Images were analyzed and densitometry performed using ImageLab software (Biorad).
The effects of increasing concentrations of THZ1 on the phosphorylation of RNA Pol II at S2, S5 and S7 was tested across multiple breast cancer cell lines. […]

[3] = tested on: MDA-MB-231 cells; assay: Cell cycle analysis; format: cell-based; settings: MDA-MB-231, 100 and 250 nM
Experimental: (§2) MDA-MB-231 and T47D cells were seeded into 6-well plates and allow to grow until 60% confluent. The cells were then washed with PBS and the media was replaced with serum-free media overnight. After serum starvation the cells were treated with serum containing media in the presence or absence of 100 and 250 nM THZ1 for 24 and 48 hours. The cells were collected, fixed in ethanol overnight and cell cycle distribution was measured using DAPI on the LSR2 (Beckman-Dickinson).

[4] = tested on: T47D cells; assay: Cell cycle analysis; format: cell-based; settings: 100 and 250 nM, 24 or 48 hours
Experimental: as §2

[5] = tested on: PARP cleavage in MDA-MB-231, SKBR3 and JIMT-1 cells; assay: Immunoblotting for PARP cleavage; format: cell-based; settings: 250 nM, 24 and 48 hours
Experimental: as §1

[6] = tested on: breast cancer cell lines; assay: qPCR gene expression after THZ1; format: cell-based; settings: 250 nM, 6 hours
Experimental: Cells were plated in 100 mm^2 petri dishes at a density of 1×10^6 cells/plate and allowed to grow for 3-4 days until the cells reached 80% confluency. Cells were treated with THZ1 or with vehicle control (DMSO). Total RNA was extracted using RNAeasy Mini Kit (Qiagen) and 1 μg of total RNA was used to generate cDNA using iScript cDNA synthesis kit (BioRad). Gene expression was quantified using iTaq Universal SYBR green super mix on a CFX384 Real time system (BioRad).

[7] = tested on: CITED2; assay: Immunoblotting of CITED2 protein; format: cell-based; settings: 10-6250 nM, 4 hours, immunoblot
Experimental: as §1

[8] = tested on: MDA-MB-468 cells; settings: fold change in gene expression, 250 nM THZ1; cited from earlier work
[9] = tested on: ZR751; settings: fold change in gene expression, THZ1; cited from earlier work

CN(C)C/C=C/C(=O)Nc1ccc(C(=O)Nc2cccc(Nc3ncc(Cl)c(-c4c[nH]c5ccccc45)n3)c2)cc1 [THZ1]
growth inhibition [1]: inhibited the growth of all tested cell lines regardless of subtype | phosphorylation of RNA Pol II at S2, S5 and S7 [2]: inhibited the phosphorylation of all three sites in a dose dependent manner | cell cycle distribution ([3]; 24 hours): G1 arrest | cell cycle distribution ([3]; 48 hours): increased sub-G1 (apoptotic cell) accumulation | cell cycle distribution [4]: G1 arrest | PARP cleavage [5]: induced PARP cleavage only in the SKBR3 cells | expression of SOX9 and STAT3 ([6]; MDA-MB-231 and T47D): not inhibited | expression of CITED2, CDKN1B and PLK2 ([6]; majority of tested cell lines): significant decrease in expression | expression of EGFR, MYC and FOXC1 ([6]; majority of the cell lines tested): significantly inhibited | protein expression of CITED2 [7]: significantly decreased | BAMBI 468 FC [8]: −3.8 | CDKN1B 468 FC [8]: −4.11 | CITED2 468 FC [8]: −4.53 | CYR61 468 FC [8]: −4.82 | DKK1 468 FC [8]: −4.7 | E2F8 468 FC [8]: −4.01 | ELF3 468 FC [8]: −3.88 | FADD 468 FC [8]: −3.93 | FBXO5 468 FC [8]: −4.19 | MARS2 468 FC [8]: −4.04 | MOCS3 468 FC [8]: −3.84 | MYC 468 FC [8]: −4.64 | NEDD9 468 FC [8]: −4.03 | PHLDA1 468 FC [8]: −3.71 | PIM3 468 FC [8]: −4.05 | PLK2 468 FC [8]: −3.99 | TRIB1 468 FC [8]: −3.69 | WEE1 468 FC [8]: −3.69 | ZNF217 468 FC [8]: −3.77 | ZNF627 468 FC [8]: −3.68 | BAMBI ZR751 FC [9]: −3.77 | CDKN1B ZR751 FC [9]: −2.57 | CITED2 ZR751 FC [9]: −2.64 | CYR61 ZR751 FC [9]: −1.81 | DKK1 ZR751 FC [9]: −4.15 | E2F8 ZR751 FC [9]: −4.01 | ELF3 ZR751 FC [9]: −1.65 | FADD ZR751 FC [9]: −4.12 | FBXO5 ZR751 FC [9]: −3.01 | MARS2 ZR751 FC [9]: −3.75 | MOCS3 ZR751 FC [9]: −4.1 | MYC ZR751 FC [9]: −2.98 | NEDD9 ZR751 FC [9]: −2.68 | PHLDA1 ZR751 FC [9]: −2.55 | PIM3 ZR751 FC [9]: −3.96 | PLK2 ZR751 FC [9]: −3.04 | TRIB1 ZR751 FC [9]: −3.54 | WEE1 ZR751 FC [9]: −3.25 | ZNF217 ZR751 FC [9]: −4.13 | ZNF627 ZR751 FC [9]: −3.38
